For experiment [1], the target named is 5-hydroxytryptamine receptor 2A (Rattus norvegicus, UniProt P14842). Description: Binding affinity against 5-hydroxytryptamine 2A receptor by displacement of [3H]-ketanserin from rat prefrontal cerebral cortex mambranes. It counts as tissue-based, Frontal cortex. A general note: Displacement assays read how much labelled ligand stays bound in the presence of the test substance.

Experiment [2] addresses T1, 5-hydroxytryptamine receptor 1A (Rattus norvegicus, UniProt P19327).
T1 sequence (P19327 whole entry): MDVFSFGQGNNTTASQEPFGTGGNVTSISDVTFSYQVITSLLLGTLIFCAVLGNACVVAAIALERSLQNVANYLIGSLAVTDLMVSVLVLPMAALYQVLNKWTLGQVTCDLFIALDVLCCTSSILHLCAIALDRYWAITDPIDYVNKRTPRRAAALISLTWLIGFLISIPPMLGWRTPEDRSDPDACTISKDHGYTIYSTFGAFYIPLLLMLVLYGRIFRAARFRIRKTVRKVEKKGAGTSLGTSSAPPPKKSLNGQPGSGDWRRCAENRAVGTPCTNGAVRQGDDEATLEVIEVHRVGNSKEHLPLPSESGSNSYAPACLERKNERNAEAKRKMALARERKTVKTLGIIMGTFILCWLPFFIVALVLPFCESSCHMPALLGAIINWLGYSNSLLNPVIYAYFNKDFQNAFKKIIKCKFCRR
The experiment in a line: Binding affinity against 5-hydroxytryptamine 1A receptor (5-HT1A) by displacement of [3H]8-OH-DPAT from rat hippocampus membranes. The format is cell membranes, Membrane.

Experiment [3] has as its target Sodium-dependent serotonin transporter (Rattus norvegicus, UniProt P31652). The experiment in a line: Binding affinity to the serotonin transporter (SERT) measured by displacement of [3H]paroxetine in male wistar rats.

Sodium-dependent serotonin transporter, sequence (P31652 whole entry): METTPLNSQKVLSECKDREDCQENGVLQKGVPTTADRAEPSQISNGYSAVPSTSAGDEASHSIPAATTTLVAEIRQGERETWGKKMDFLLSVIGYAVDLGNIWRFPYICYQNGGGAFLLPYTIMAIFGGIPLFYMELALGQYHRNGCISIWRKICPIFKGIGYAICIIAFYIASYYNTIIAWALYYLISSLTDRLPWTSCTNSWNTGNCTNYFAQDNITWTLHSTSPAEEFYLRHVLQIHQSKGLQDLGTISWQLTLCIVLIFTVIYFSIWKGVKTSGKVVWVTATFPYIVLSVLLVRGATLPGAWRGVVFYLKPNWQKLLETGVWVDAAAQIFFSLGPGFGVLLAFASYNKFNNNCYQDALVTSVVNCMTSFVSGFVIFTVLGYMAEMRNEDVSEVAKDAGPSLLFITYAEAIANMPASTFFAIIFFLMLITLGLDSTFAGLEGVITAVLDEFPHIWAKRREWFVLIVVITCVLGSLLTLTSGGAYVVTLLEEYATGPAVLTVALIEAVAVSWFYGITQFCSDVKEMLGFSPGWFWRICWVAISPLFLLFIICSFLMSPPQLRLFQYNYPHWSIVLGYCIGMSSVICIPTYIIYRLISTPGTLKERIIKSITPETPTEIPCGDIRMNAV
5-hydroxytryptamine receptor 2A, sequence (P14842 whole entry): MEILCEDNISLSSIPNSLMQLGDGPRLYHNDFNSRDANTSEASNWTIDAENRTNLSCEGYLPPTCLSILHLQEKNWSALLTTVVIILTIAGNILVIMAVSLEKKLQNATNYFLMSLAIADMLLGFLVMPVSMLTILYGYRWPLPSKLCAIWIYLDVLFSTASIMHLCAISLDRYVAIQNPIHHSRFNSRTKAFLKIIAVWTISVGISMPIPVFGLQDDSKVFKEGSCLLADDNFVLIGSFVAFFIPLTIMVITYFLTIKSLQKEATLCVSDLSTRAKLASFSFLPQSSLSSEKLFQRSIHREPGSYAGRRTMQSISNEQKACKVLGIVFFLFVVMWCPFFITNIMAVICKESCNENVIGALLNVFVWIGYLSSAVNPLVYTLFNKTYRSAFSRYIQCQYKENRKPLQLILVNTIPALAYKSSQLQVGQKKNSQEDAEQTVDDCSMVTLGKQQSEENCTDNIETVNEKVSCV

Turning to `Fc1cccc(OC(c2cccc(F)c2)C2CCNCC2)c1` (stereo in doubt; (-)-15u), the half-inhibitory concentration (IC50) in experiment [1] and in experiment [2] was > 1 µM each time.
Consider `Fc1ccc(C(Oc2ccc(C(F)(F)F)cc2)C2CCCNC2)cc1` (stereo not drawn), for which the Ki (usually a dissociation constant, usually derived from enzyme kinetics or from competition with a known ligand) in experiment [3] amounted to 0.0262 µM. Also, the IC50 in experiment [1] and in experiment [2] was > 1 µM throughout.
Turning to `Oc1ccc(OC(c2ccccc2)C2CCNCC2)cc1F` (stereo not drawn), the Ki in experiment [3] is 0.0213 µM. Also, the IC50 in experiment [1] and in experiment [2] was > 1 µM throughout.
As for `Fc1ccc(OC(c2ccccc2)C2CCNCC2)cc1` (stereo in doubt; 15p), the affinity in experiment [3] corresponds to a Ki of 0.0011 µM. Also, the IC50 in experiment [1] and in experiment [2] was > 1 µM in each case.
The compound `Fc1ccc(C(Oc2ccc3c(c2)OCO3)C2CCCNC2)cc1` (stereo not drawn) had a Ki in experiment [3] of 0.0042 µM. In addition, the IC50 in experiment [1] and in experiment [2] was > 1 µM each time.
For `Fc1ccccc1OC(c1ccccc1)C1CCNCC1` (stereo in doubt; 15b), affinity in experiment [3] was put at a Ki of 0.0063 µM. In addition, the IC50 in experiment [1] and in experiment [2] was > 1 µM throughout.
As to `Fc1ccc(C(Oc2ccccc2)C2CCCNC2)cc1` (stereo not drawn), the Ki in experiment [3] turned out to be 0.0406 µM. The IC50 in experiment [1] and in experiment [2] was > 1 µM in each case.
`Fc1ccc(C(Oc2ccc(Cl)c(Cl)c2)C2CCCNC2)cc1` (stereo not drawn): affinity in experiment [3] was put at a Ki of 0.0322 µM. Besides, the IC50 in experiment [1] and in experiment [2] was > 1 µM each time.
In experiment [3], `Ic1cccc(OC(c2ccccc2)C2CCNCC2)c1` (stereo not drawn) had an inhibition constant (Ki) of 0.0037 µM. The IC50 in experiment [1] and in experiment [2] was > 1 µM throughout.
In turn, `Cc1ccc(C(Oc2cccc(F)c2)C2CCNCC2)cc1` (stereo not drawn) yielded a Ki in experiment [3] of 0.0141 µM. In addition, the IC50 in experiment [1] and in experiment [2] was > 1 µM in each case.
Regarding `Cc1ccc(Cl)cc1OC(c1ccccc1)C1CCNCC1` (stereo not drawn), the Ki in experiment [3] amounted to 0.0156 µM. Besides, the IC50 in experiment [1] and in experiment [2] was > 1 µM throughout.
Turning to `Cc1c(Cl)cccc1OC(c1ccccc1)C1CCNCC1` (stereo not drawn), in experiment [3], the Ki was 0.0122 µM. The IC50 in experiment [1] and in experiment [2] was > 1 µM each time.
In experiment [3], `N#Cc1ccc(OC(CC2CCNCC2)c2ccc(F)cc2)cc1` (stereo not drawn) had an inhibition constant Ki of 0.0169 µM. The IC50 in experiment [1] and in experiment [2] was > 1 µM in each case.
As to `Fc1ccc(C(Oc2cccc3ccccc23)C2CCCNC2)cc1` (stereo not drawn), the Ki in experiment [3] amounted to 0.0215 µM. Moreover, the IC50 in experiment [1] and in experiment [2] was > 1 µM each time.
As for `Clc1cccc(OC(c2ccccc2)C2CCNCC2)c1` (stereo in doubt; 15l), the IC50 in experiment [1] and in experiment [2] was > 1 µM throughout.
Regarding `Cc1ccc(OC(c2ccc(F)cc2)C2CCCNC2)cc1` (stereo not drawn), the inhibition constant (Ki) in experiment [3] was found to be 0.0226 µM. In addition, the IC50 in experiment [1] and in experiment [2] was > 1 µM each time.
For the compound `c1ccc(C(Oc2cccc3ccccc23)C2CCNCC2)cc1` (stereo in doubt; 15au), the Ki in experiment [3] is 0.0083 µM. The IC50 in experiment [1] and in experiment [2] was > 1 µM throughout.
Turning to `Fc1cccc(OC(c2ccccc2)C2CCNCC2)c1` (stereo in doubt; 15j), the IC50 in experiment [1] and in experiment [2] was > 1 µM each time.
The compound `Fc1ccc(OC(c2ccc(F)cc2)C2CCCNC2)cc1` (stereo not drawn) came in with a Ki in experiment [3] of 0.0234 µM. The IC50 in experiment [1] and in experiment [2] was > 1 µM throughout.
As to `COc1cc2c(cc1OC)CN(CCC(Oc1ccccc1C(F)(F)F)c1ccccc1)CC2` (stereo not drawn), in experiment [3], the Ki came to 0.134 µM. Besides, the IC50 in experiment [1] and in experiment [2] was > 1 µM each time.
Regarding `Clc1ccccc1OC(c1ccccc1)C1CCNCC1` (stereo not drawn), the affinity in experiment [3] corresponds to a Ki of 0.0082 µM. Besides, the IC50 in experiment [1] and in experiment [2] was > 1 µM in each case.
The compound `N#Cc1ccc(OC(c2ccc(F)cc2)C2CCCNC2)cc1` (stereo not drawn) had a Ki in experiment [3] of 0.04 µM. For the same compound, the concentration for half-maximal inhibition (IC50) in experiment [1] and in experiment [2] was > 1 µM throughout.
In experiment [3], `O=[N+]([O-])c1ccc(OC(c2ccccc2)C2CCNCC2)cc1` (stereo in doubt; 15m) had a Ki of 0.0024 µM. Moreover, the IC50 in experiment [1] and in experiment [2] was > 1 µM in each case.
With `COc1ccc(C(CN(C)C)C2(O)CCCCC2)cc1` (stereo not drawn) [VENLAFAXINE], the IC50 (usually the concentration at which inhibition is half-maximal) in experiment [2] is > 1 µM.
In experiment [3], `c1ccc(OC(c2ccccc2)C2CCNCC2)cc1` (stereo not drawn) displayed an inhibitory constant (Ki) of 0.0023 µM. Besides, the IC50 in experiment [1] and in experiment [2] was > 1 µM in each case.
For the compound `N#Cc1cccc(OC(c2ccccc2)C2CCNCC2)c1` (stereo in doubt; 15k), in experiment [3], the affinity, expressed as Ki, was 0.001 µM. The IC50 in experiment [1] and in experiment [2] was > 1 µM each time.
For the compound `Clc1ccc(C(Oc2ccccc2)C2CCNCC2)cc1` (stereo not drawn), the Ki in experiment [3] is 0.0194 µM. In addition, the IC50 in experiment [1] and in experiment [2] was > 1 µM in each case.
Consider `FC(F)(F)c1ccccc1OC(c1ccccc1)C1CCNCC1` (stereo not drawn), for which, in experiment [3], the inhibition constant (Ki) was found to be 0.124 µM. The IC50 in experiment [1] and in experiment [2] was > 1 µM in each case.
For the compound `COc1cc2c(cc1OC)CN(CCC(Oc1ccccc1F)c1ccccc1)CC2` (stereo not drawn), the Ki in experiment [3] is 0.207 µM. Moreover, the IC50 in experiment [1] and in experiment [2] was > 1 µM in each case.
For the compound `Ic1ccc(OC(c2ccccc2)C2CCNCC2)cc1` (stereo not drawn), the affinity in experiment [3] corresponds to a Ki of 0.0206 µM. Moreover, the IC50 in experiment [1] and in experiment [2] was > 1 µM each time.
As to `Fc1ccc([C@@H]2CCNC[C@H]2COc2ccc3c(c2)OCO3)cc1` [PAROXETINE], in experiment [2], the half-inhibitory concentration (IC50) is > 1 µM.
In experiment [3], `Fc1ccc(OC(c2ccc(F)cc2)C2CCNCC2)cc1` (stereo not drawn) had a Ki of 0.0009 µM. Besides, the IC50 in experiment [1] and in experiment [2] was > 1 µM throughout.
As for `COc1ccc(OC(c2ccc(F)cc2)C2CCCNC2)cc1` (stereo not drawn), the affinity in experiment [3], expressed as Ki, was 0.0208 µM. In addition, the IC50 in experiment [1] and in experiment [2] was > 1 µM throughout.
The compound `Oc1c(F)cccc1OC(c1ccccc1)C1CCNCC1` (stereo not drawn) displayed an inhibitory constant (Ki) in experiment [3] of 0.0155 µM. Besides, the IC50 in experiment [1] and in experiment [2] was > 1 µM each time.
Compound `Brc1ccc(OC(c2ccccc2)C2CCNCC2)cc1` (stereo in doubt; 15r) registered a Ki in experiment [3] of 0.002 µM. In addition, the IC50 in experiment [1] and in experiment [2] was > 1 µM in each case.
In experiment [3], `Clc1ccc(OC(c2ccccc2)C2CCNCC2)cc1Cl` (stereo not drawn) returned an inhibitory constant (Ki) of 0.0099 µM. Besides, the IC50 in experiment [1] and in experiment [2] was > 1 µM throughout.
Turning to `Fc1ccc(OC(c2ccccc2)C2CCNCC2)cc1` (single isomer, unassigned; (-)), the half-maximal inhibitory concentration (IC50) in experiment [1] and in experiment [2] was > 1 µM in each case.
In the case of `Oc1cc(F)cc(OC(c2ccccc2)C2CCNCC2)c1` (stereo not drawn), the Ki in experiment [3] amounted to 0.002 µM. Moreover, the IC50 in experiment [1] and in experiment [2] was > 1 µM each time.
Turning to `N#Cc1cc(F)cc(OC(c2ccccc2)C2CCNCC2)c1` (stereo not drawn), the Ki in experiment [3] was found to be 0.0026 µM. Besides, the IC50 in experiment [1] and in experiment [2] was > 1 µM in each case.
In experiment [3], `COc1ccc(OC(c2ccc(F)cc2)C2CCNCC2)cc1` (stereo not drawn) gave a Ki of 0.0009 µM. The IC50 in experiment [1] and in experiment [2] was > 1 µM in each case.
`COc1cc(F)cc(OC(c2ccccc2)C2CCNCC2)c1` (stereo not drawn) returned a Ki in experiment [3] of 0.0019 µM. Moreover, the half-maximal inhibitory concentration (IC50) in experiment [1] and in experiment [2] was > 1 µM throughout.
For `FC(F)(F)c1cccc(OC(c2ccccc2)C2CCNCC2)c1` (stereo not drawn), in experiment [3], the Ki turned out to be 0.009 µM. Moreover, the IC50 in experiment [1] and in experiment [2] was > 1 µM each time.
In experiment [3], `N#Cc1ccc(OC(c2ccccc2)C2CCNCC2)cc1Cl` (stereo not drawn) yielded a Ki of 0.0039 µM. For the same compound, the IC50 in experiment [1] and in experiment [2] was > 1 µM throughout.
As for `CNCCC(Oc1ccccc1OC)c1ccccc1` (stereo not drawn) [NISOXETINE], the IC50 in experiment [1] and in experiment [2] was > 1 µM in each case.

For the origin of these results see ChEMBL document CHEMBL1145929, “Syntheses and binding studies of new [(aryl)(aryloxy)methyl]piperidine derivatives and related compounds as potential antidepressant drugs with high affinity for serotonin (5-HT) and norepinephrine (NE) transporters” (J Med Chem, 2003).
